Assay results taken from patent publication US20250082665A1, “EYE DROP FORMULATIONS IN THE FORM OF AN AQUEOUS SOLUTION COMPRISING 8-OXO-2'-DEOXYGUANOSINE OR A PHARMACEUTICALLY ACCEPTABLE SALT THEREOF” (RUDACURE CORPORATION, priority 2023, published 2025).

Key:
corneal injuries = conditions: cited from earlier work
[1] = water solubility / solubilization of the compound of Formula 1; format: physicochemical

Nc1nc2c(nc(O)n2[C@H]2C[C@H](O)[C@@H](CO)O2)c(=O)[nH]1 [compound of Formula 1, 8-oxo-2′-deoxyguanosine]
corneal epithelial restoration (corneal injuries): rapid corneal epithelial restoration
behaviour of aqueous solution obtained by heating when stored at room temperature ([1]; solubilized by heating, stored at room temperature): precipitates
solubility ([1]; water, room temperature (about 25° C.)): 1910 µg/mL
